Laboratory results published in patent US20260000698A1 (priority 2022, published 2026).

Tests used:
[1] = target: SARS-CoV-2 Nsp14 MTase (Severe acute respiratory syndrome coronavirus 2, UniProt P0DTD1); experiment: Nsp14 MTase assay detected with MTase-Glo methyltransferase assay kit; type: biochemical; conditions: for inhibition at 10 µM: read-out: MTase % inhibition at 10 μM; for IC50: methylation reaction detected by MTase-Glo kit
Procedure: Detection using MTase-Glo™ methyltransferase assay kits. The assay was run according to Promega MTase-Glo™ kit (V7601) instructions. […]. GpppA was purchased by New England Biolabs and used at a final concentration of 3 uM/reaction. […] […] Compounds, Nsp14, GpppA at MTase-Glo™ reagent were pre-incubated for 15 min at room temperature. The assay was started with addition of SAM at final concentration of 1 uM/reaction (negative control had no SAM). The assay plate was mixed well with a plate shaker after each addition. The reaction was incubated for 15 min at 30° C. MTase-Glo™ detection solution was added, and the plate was incubated 60 min at room temperature. Luminescence was read on an M5e spectrophotometer.

[2] = test system: SARS-CoV-2 isolate USA-WA1/2020; experiment: microbe, parasite or virus in culture; conditions: Severe acute respiratory syndrome coronavirus 2, A549-ACE2, 48 h
[3] = test system: A549/ACE2/TMPRSS2 cells; experiment: in vitro; conditions: for CC50: A549/ACE2/TMPRSS2 cells; for cytotoxicity: human, 100 μM
Procedure: Percentage of infected cells was determined by dividing the number of infected cells by the total number of cells per well. The percentage of infected cells and total number of cells for each treatment was plotted into GraphPad prism (GraphPad Software; San Diego, CA, USA) to perform a non-linear regression analysis, generate infectious dose-response curves and to calculate EC50 and CC50 values.
Viability assays for the non-infected A549/ACE2/TMPRSS2 cells were performed using the 3-(4,5-dimethylthiazol-2-yl)-5-(3-carboxymethoxyphenyl)-2-(4-sulfophenyl)-2H-tetrazolium (MTS)-based tetrazolium reduction CellTiter 96 Aqueous Non-Radioactive cell proliferation assay (Promega G5430; Madison, WI) as described. Assays were conducted using parallel plates to those used in the immunofluorescence assay. Experimental details (cell line, number of cells seeded and incubation time) corresponded to those used in the immunofluorescence assay above. The data obtained were used to calculate the CC50 value using GraphPad Prism software.

SMILES: Nc1ncnn2c([C@@H]3O[C@H](CNS(=O)(=O)c4cccc(-c5ccccc5)c4)[C@@H](O)[C@H]3O)ccc12 [Compound 45, N-(((2R,3S,4R,5S)-5-(4-Aminopyrrolo[2,1-f][1,2,4]triazin-7-yl)-3,4-dihydroxytetrahydrofuran-2-yl)methyl)-[1,1′-biphenyl]-3-sulfonamide]
- inhibition at 10 µM [1]: 85%

SMILES: CCN(C[C@H]1O[C@@H](c2ccc3c(N)ncnn23)[C@H](O)[C@@H]1O)S(=O)(=O)c1ccc2ccccc2c1 [Compound 53, N-(((2R,3S,4R,5S)-5-(4-Aminopyrrolo[2,1-f][1,2,4]triazin-7-yl)-3,4-dihydroxytetrahydrofuran-2-yl)methyl)-N-ethylnaphthalene-2-sulfonamide]
- IC50 [1]: 0.156 µM

SMILES: Nc1ncnn2c([C@@H]3O[C@H](CNS(=O)(=O)c4ccc(-c5ccccc5)cc4)[C@@H](O)[C@H]3O)ccc12 [Compound 47, N-(((2R,3S,4R,5S)-5-(4-Aminopyrrolo[2,1-f][1,2,4]triazin-7-yl)-3,4-dihydroxytetrahydrofuran-2-yl)methyl)-[1,1′-biphenyl]-4-sulfonamide]
- inhibition at 10 µM [1]: 85%

SMILES: Nc1ncnc2c([C@@H]3O[C@H](CNS(=O)(=O)c4ccc5ccccc5c4)[C@@H](O)[C@H]3O)csc12 [Compound B12, N-(((2R,3S,4R,5S)-5-(4-Aminothieno[3,2-d]pyrimidin-7-yl)-3,4-dihydroxytetrahydrofuran-2-yl)methyl)naphthalene-2-sulfonamide]
- inhibition at 10 µM [1]: 91%

SMILES: Nc1ncnn2c([C@@H]3O[C@H](CNS(=O)(=O)c4ccc5ccccc5c4)[C@@H](O)[C@H]3O)cc(F)c12 [Compound 51, N-(((2R,3S,4R,5S)-5-(4-Amino-5-fluoropyrrolo[2,1-f][1,2,4]triazin-7-yl)-3,4-dihydroxytetrahydrofuran-2-yl)methyl)naphthalene-2-sulfonamide]
- IC50 [1]: 0.032 µM

SMILES: Nc1ncnc2c1ccn2[C@@H]1O[C@H](CNS(=O)(=O)c2ccc3ccccc3c2)[C@@H](O)[C@H]1O [Compound C9, N-(((2R,3S,4R,5R)-5-(4-Amino-7H-pyrrolo[2,3-d]pyrimidin-7-yl)-3,4-dihydroxytetrahydrofuran-2-yl)methyl)naphthalene-2-sulfonamide]
- IC50 [1]: 0.019 µM

SMILES: CCN(C[C@H]1O[C@@H](n2ccc3c(N)ncnc32)[C@H](O)[C@@H]1O)S(=O)(=O)c1ccc(OC)c(C#N)c1 [Compound C13, N-(((2R,3S,4R,5R)-5-(4-Amino-7H-pyrrolo[2,3-d]pyrimidin-7-yl)-3,4-dihydroxytetrahydrofuran-2-yl)methyl)-3-cyano-N-ethyl-4-methoxybenzenesulfonamide]
- inhibition at 10 µM [1]: 100%

SMILES: CC(=O)Nc1ncnc2c1ncn2[C@@H]1O[C@H](CNS(=O)(=O)c2ccc3ccccc3c2)[C@@H](OC(C)=O)[C@H]1OC(C)=O [Compound 9, (2R,3R,4R,5R)-2-(6-Acetamido-9H-purin-9-yl)-5-((naphthalene-2-sulfonamido)methyl)tetrahydrofuran-3,4-diyl diacetate]
- EC50 [2]: 61 µM
- CC50 [3]: > 100 µM
- cytotoxicity [3]: minimal cytotoxicity at 100 μM

SMILES: CCC(CC)COC(=O)[C@H](C)N[P@](=O)(OC[C@H]1O[C@@](C#N)(c2ccc3c(N)ncnn23)[C@H](O)[C@@H]1O)Oc1ccccc1 [remdesivir, reference compound]
- EC50 [2]: 0.093 µM
- CC50 [3]: 43 µM

SMILES: COc1ccc(S(=O)(=O)NC[C@H]2O[C@@H](n3ccc4c(N)ncnc43)[C@H](O)[C@@H]2O)cc1C#N [Compound C11, N-(((2R,3S,4R,5R)-5-(4-Amino-7H-pyrrolo[2,3-d]pyrimidin-7-yl)-3,4-dihydroxytetrahydrofuran-2-yl)methyl)-3-cyano-4-methoxybenzenesulfonamide]
- inhibition at 10 µM [1]: 98%

SMILES: CC(=O)O[C@@H]1[C@H](OC(C)=O)[C@@H](CNS(=O)(=O)c2ccc3ccccc3c2)O[C@H]1n1cnc2c(N)ncnc21 [Compound 8, (2R,3R,4R,5R)-2-(6-Amino-9H-purin-9-yl)-5-((naphthalene-2-sulfonamido)methyl)tetrahydrofuran-3,4-diyl diacetate]
- EC50 [2]: 53 µM
- CC50 [3]: > 100 µM
- cytotoxicity [3]: minimal cytotoxicity at 100 μM
